Data on 24 compounds can be found in US20240368173A1, “TRICYCLIC GPR65 MODULATORS” (PATHIOS THERAPEUTICS LIMITED, priority 2021, published 2024).

SMILES strings stand for the structures. Where only a bound is given, the exact number is not on record here.

Chain of human recombinant GPR65 (Q8IYL9 whole entry): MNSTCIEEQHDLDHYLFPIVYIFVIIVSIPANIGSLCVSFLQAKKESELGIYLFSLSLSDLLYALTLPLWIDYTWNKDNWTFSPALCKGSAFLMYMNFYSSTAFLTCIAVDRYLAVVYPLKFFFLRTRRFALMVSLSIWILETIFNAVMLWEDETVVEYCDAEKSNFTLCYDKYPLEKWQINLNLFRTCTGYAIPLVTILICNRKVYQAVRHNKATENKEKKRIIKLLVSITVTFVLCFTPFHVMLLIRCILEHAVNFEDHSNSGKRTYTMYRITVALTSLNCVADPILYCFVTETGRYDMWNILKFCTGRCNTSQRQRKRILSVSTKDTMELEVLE

One experiment has as its target human recombinant GPR65 (Homo sapiens, UniProt Q8IYL9). Briefly: Human GPR65 cAMP HTRF antagonist assay. The format is cell-based.
Conditions: not given
The essentials:
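Antagonism measured as suppression of the cAMP rise when pH is dropped to 7.2 (control wells pH 7.9) in 1321N1 cells stably carrying human GPR65. Cells in KRH with 1 mM IBMX and 200 μM EDTA saw compound 30 min, then acid stimulation 30 min; HTRF cAMP detection, normalised, 4-parameter logistic IC50.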
One may read the IC50 as the midpoint of a concentration-inhibition curve. On to `COc1cnccc1-c1cc(F)c(NC(=O)N2[C@H]3CC[C@@H]2c2ccnc(F)c2C3)cc1Cl` [Compound 297, (5R,8S)-N-(5-Chloro-2-fluoro-4-(3-methoxypyridin-4-yl)phenyl)-1-fluoro-6,7,8,9-tetrahydro-5H-5,8-epiminocyclohepta[c]pyridine-10-carboxamide], for which the IC50 is below 500 nM.

In the case of `COc1cnccc1-c1cc(F)c(NC(=O)N2[C@H]3CC[C@@H]2c2c[nH]c(=O)cc2C3)cc1Cl` [Compound 298, (6S,9R)-N-(5-Chloro-2-fluoro-4-(3-methoxypyridin-4-yl)phenyl)-3-oxo-3,5,6,7,8,9-hexahydro-2H-6,9-epiminocyclohepta[c]pyridine-10-carboxamide], the IC50 is 500 to 5000 nM.

With `CN(C)CCOc1ccc(-c2cc(F)c(NC(=O)N3[C@H]4CC[C@@H]3c3ccnc(F)c3C4)cc2Cl)cn1` [Compound 301, (5R,8S)-N-(5-Chloro-4-(6-(2-(dimethylamino)ethoxy)pyridin-3-yl)-2-fluorophenyl)-1-fluoro-6,7,8,9-tetrahydro-5H-5,8-epiminocyclohepta[c]pyridine-10-carboxamide], the IC50 was below 500 nM.

On to `O=C(Nc1cc(Cl)c(COc2ccc3nonc3c2)cc1F)N1[C@H]2CC[C@@H]1c1n[nH]c(=O)cc1C2` [Compound 302, (6S,9R)-N-(4-((Benzo[c][1,2,5]oxadiazol-5-yloxy)methyl)-5-chloro-2-fluorophenyl)-3-oxo-3,5,6,7,8,9-hexahydro-2H-6,9-epiminocyclohepta[c]pyridazine-10-carboxamide], for which the IC50 is below 500 nM.

For the compound `COCCOc1ccc(-c2cc(F)c(NC(=O)N3[C@H]4CC[C@@H]3c3n[nH]c(=O)cc3C4)cc2Cl)cn1` [Compound 303, (6S,9R)-N-(5-Chloro-2-fluoro-4-(6-(2-methoxyethoxy)pyridin-3-yl)phenyl)-3-oxo-3,5,6,7,8,9-hexahydro-2H-6,9-epiminocyclohepta[c]pyridazine-10-carboxamide], the IC50 is below 500 nM.

Regarding `CO[C@H]1C[C@@H](Oc2ccc(-c3cc(F)c(NC(=O)N4[C@H]5CC[C@@H]4c4n[nH]c(=O)cc4C5)cc3Cl)cn2)C1` [Compound 304, (6S,9R)-N-(5-Chloro-2-fluoro-4-(6-((1s,3S)-3-methoxycyclobutoxy)pyridin-3-yl)phenyl)-3-oxo-3,5,6,7,8,9-hexahydro-2H-6,9-epiminocyclohepta[c]pyridazine-10-carboxamide], the IC50 was below 500 nM.

In the case of `O=C(Nc1cc(Cl)c(-c2ccc(OCC(F)F)nc2)cc1F)N1[C@H]2CC[C@@H]1c1n[nH]c(=O)cc1C2` [Compound 305, (6S,9R)-N-(5-Chloro-4-(6-(2,2-difluoroethoxy)pyridin-3-yl)-2-fluorophenyl)-3-oxo-3,5,6,7,8,9-hexahydro-2H-6,9-epiminocyclohepta[c]pyridazine-10-carboxamide], the IC50 is below 500 nM.

Turning to `CO[C@H]1C[C@H](Oc2ccc(-c3cc(F)c(NC(=O)N4[C@H]5CC[C@@H]4c4n[nH]c(=O)cc4C5)cc3Cl)cn2)C1` [Compound 306, (6S,9R)-N-(5-Chloro-2-fluoro-4-(6-((1r,3R)-3-methoxycyclobutoxy)pyridin-3-yl)phenyl)-3-oxo-3,5,6,7,8,9-hexahydro-2H-6,9-epiminocyclohepta[c]pyridazine-10-carboxamide], the IC50 is below 500 nM.

With `O=C(Nc1cc(Cl)c(-c2ccc(OC(CF)CF)nc2)cc1F)N1[C@H]2CC[C@@H]1c1n[nH]c(=O)cc1C2` [Compound 307, (6S,9R)-N-(5-Chloro-4-(6-((1,3-difluoropropan-2-yl)oxy)pyridin-3-yl)-2-fluorophenyl)-3-oxo-3,5,6,7,8,9-hexahydro-2H-6,9-epiminocyclohepta[c]pyridazine-10-carboxamide], the IC50 is below 500 nM.

As to `O=C(Nc1cc(Cl)c(-c2ccnc(OCC(F)(F)F)c2)cc1F)N1[C@H]2CC[C@@H]1c1c[nH]c(=O)cc1C2` [Compound 309, (6S,9R)-N-(5-Chloro-2-fluoro-4-(2-(2,2,2-trifluoroethoxy)pyridin-4-yl)phenyl)-3-oxo-3,5,6,7,8,9-hexahydro-2H-6,9-epiminocyclohepta[c]pyridine-10-carboxamide], the IC50 is below 500 nM.

Take `O=C(Nc1cc(Cl)c(-c2ccnc(OCC(F)(F)F)c2)cc1F)N1[C@H]2CC[C@@H]1c1n[nH]c(=O)cc1C2` [Compound 310, (6S,9R)-N-(5-Chloro-2-fluoro-4-(2-(2,2,2-trifluoroethoxy)pyridin-4-yl)phenyl)-3-oxo-3,5,6,7,8,9-hexahydro-2H-6,9-epiminocyclohepta[c]pyridazine-10-carboxamide]: the IC50 was below 500 nM.

`O=C(Nc1cc(Cl)c(-c2cncc(CF)c2)cc1F)N1[C@H]2CC[C@@H]1c1n[nH]c(=O)cc1C2` [Compound 311, (6S,9R)—N-(5-Chloro-2-fluoro-4-(5-(fluoromethyl)pyridin-3-yl)phenyl)-3-oxo-3,5,6,7,8,9-hexahydro-2H-6,9-epiminocyclohepta[c]pyridazine-10-carboxamide]: the IC50 is below 500 nM.

As for `O=C(Nc1cc(Cl)c(-c2ccc(C(F)(F)F)nc2)cc1F)N1[C@H]2CC[C@@H]1c1c[nH]c(=O)cc1C2` [Compound 312, (6S,9R)-N-(5-Chloro-2-fluoro-4-(6-(trifluoromethyl)pyridin-3-yl)phenyl)-3-oxo-3,5,6,7,8,9-hexahydro-2H-6,9-epiminocyclohepta[c]pyridine-10-carboxamide], the IC50 is below 500 nM.

As for `O=C(Nc1cc(Cl)c(-c2ccc(C(F)(F)F)nc2)cc1F)N1[C@H]2CC[C@@H]1c1n[nH]c(=O)cc1C2` [Compound 313, (6S,9R)-N-(5-Chloro-2-fluoro-4-(6-(trifluoromethyl)pyridin-3-yl)phenyl)-3-oxo-3,5,6,7,8,9-hexahydro-2H-6,9-epiminocyclohepta[c]pyridazine-10-carboxamide], the IC50 was below 500 nM.

As for `O=C(Nc1cc(Cl)c(-c2ccc3nonc3n2)cc1F)N1[C@H]2CC[C@@H]1c1n[nH]c(=O)cc1C2` [Compound 314, (6S,9R)-N-(4-([1,2,5]Oxadiazolo[3,4-b]pyridin-5-yl)-5-chloro-2-fluorophenyl)-3-oxo-3,5,6,7,8,9-hexahydro-2H-6,9-epiminocyclohepta[c]pyridazine-10-carboxamide], the IC50 was below 500 nM.

For `O=C(Nc1cc(Cl)c(-c2ccc(OC(F)F)nc2)cc1F)N1[C@H]2CC[C@@H]1c1n[nH]c(=O)cc1C2` [Compound 315, (6S,9R)-N-(5-Chloro-4-(6-(difluoromethoxy)pyridin-3-yl)-2-fluorophenyl)-3-oxo-3,5,6,7,8,9-hexahydro-2H-6,9-epiminocyclohepta[c]pyridazine-10-carboxamide], the IC50 is below 500 nM.

Take `O=C(Nc1cc(Cl)c(COc2cncc(F)c2)cc1F)N1[C@H]2CC[C@@H]1c1n[nH]c(=O)cc1C2` [Compound 316, (6S,9R)-N-(5-Chloro-2-fluoro-4-(((5-fluoropyridin-3-yl)oxy)methyl)phenyl)-3-oxo-3,5,6,7,8,9-hexahydro-2H-6,9-epiminocyclohepta[c]pyridazine-10-carboxamide]: the IC50 is below 500 nM.

For the compound `CO[C@H]1C[C@H](Oc2ccc(-c3cc(F)c(NC(=O)N4[C@H]5CC[C@@H]4c4c[nH]c(=O)cc4C5)cc3Cl)cn2)C1` [Compound 317, (6S,9R)-N-(5-Chloro-2-fluoro-4-(6-((1r,3R)-3-methoxycyclobutoxy)pyridin-3-yl)phenyl)-3-oxo-3,5,6,7,8,9-hexahydro-2H-6,9-epiminocyclohepta[c]pyridine-10-carboxamide], the IC50 is below 500 nM.

On to `O=C(Nc1cc(Cl)c(-c2ccc(OCC3CC3)nc2)cc1F)N1[C@H]2CC[C@@H]1c1n[nH]c(=O)cc1C2` [Compound 318, (6S,9R)-N-(5-Chloro-4-(6-(cyclopropylmethoxy)pyridin-3-yl)-2-fluorophenyl)-3-oxo-3,5,6,7,8,9-hexahydro-2H-6,9-epiminocyclohepta[c]pyridazine-10-carboxamide], for which the IC50 is below 500 nM.

In the case of `CC(C)COc1ccc(-c2cc(F)c(NC(=O)N3[C@H]4CC[C@@H]3c3n[nH]c(=O)cc3C4)cc2Cl)cn1` [Compound 319, (6S,9R)-N-(5-Chloro-2-fluoro-4-(6-isobutoxypyridin-3-yl)phenyl)-3-oxo-3,5,6,7,8,9-hexahydro-2H-6,9-epiminocyclohepta[c]pyridazine-10-carboxamide], the IC50 is below 500 nM.

Take `O=C(Nc1cc(Cl)c(-c2ccc(OCCC(F)(F)F)nc2)cc1F)N1[C@H]2CC[C@@H]1c1n[nH]c(=O)cc1C2` [Compound 320, (6S,9R)-N-(5-Chloro-2-fluoro-4-(6-(3,3,3-trifluoropropoxy)pyridin-3-yl)phenyl)-3-oxo-3,5,6,7,8,9-hexahydro-2H-6,9-epiminocyclohepta[c]pyridazine-10-carboxamide]: the IC50 is below 500 nM.

The experiment is the same for the next values; noted with them: 1321N1-hrGPR65 cells, cAMP HTRF, assay pH 7.2; read-out: hGPR65 IC50 (Activity of selected compounds according to the invention).
In the case of `COc1cnccc1-c1cc(F)c(NC(=O)N2[C@H]3CC[C@@H]2c2n[nH]c(=O)cc2C3)cc1Cl` [Compound 299, (6S,9R)-N-(5-Chloro-2-fluoro-4-(3-methoxypyridin-4-yl)phenyl)-3-oxo-3,5,6,7,8,9-hexahydro-2H-6,9-epiminocyclohepta[c]pyridazine-10-carboxamide], the IC50 was 500 to 5000 nM.

As to `CNCCOc1ccc(-c2cc(F)c(NC(=O)N3[C@H]4CC[C@@H]3c3ccnc(F)c3C4)cc2Cl)cn1` [Compound 300, (5R,8S)—N-(5-Chloro-2-fluoro-4-(6-(2-(methylamino)ethoxy)pyridin-3-yl)phenyl)-1-fluoro-6,7,8,9-tetrahydro-5H-5,8-epiminocyclohepta[c]pyridine-10-carboxamide], the IC50 was in the range of 500 to 5000 nM.

Regarding `O=C(Nc1c(F)cc(Cl)c(Cl)c1F)N1[C@H]2CC[C@@H]1c1n[nH]c(=O)cc1C2` [Compound 308, (6S,9R)-N-(3,4-Dichloro-2,6-difluorophenyl)-3-oxo-3,5,6,7,8,9-hexahydro-2H-6,9-epiminocyclohepta[c]pyridazine-10-carboxamide], the IC50 is 500 to 5000 nM.
